Assay results as given in patent US20190297889A1, “USE OF A DIFLUORO-(2-HYDROXYPROPYL)PYRIDINE COMPOUND AS A FUNGICIDE FOR CONTROL OF PHYTOPATHOGENIC FUNGI OF RICE” (Dow AgroSsciences LLC, priority 2016, published 2019).
Like-named read-outs stand apart in the source and are kept apart here.

What was measured:
Cochliobolus miyabeanus = experiment: Field assessment of Cochliobolus miyabeanus (COCHMI, brown spot) in rice; conditions: for Percent Control (AUDPC), Panicle: panicles; for Percent Control (AUDPC), Plot: whole plot foliage
Procedure: The applications were made as early curative treatments, with the first application coming at the vegetative stage (50 to 70 DAP; max tillering to booting). The treatments were part of an experimental trial designed as a randomized complete block with four replications and a plot of approximately 5×2 m.
Disease assessments were made every seven days until three weeks after the second application. Disease severity was recorded as a percentage of visual diseased foliage on whole plot and as a percentage of visual infection on the rice panicles. Area under the disease progress curve (AUDPC) was calculated for each plot using the sets of recorded severity data. Relative AUDPC (% control based on AUDPC) was calculated as percent of the nontreated control. Also included in the study is the effect on efficacy of the addition of two adjuvants at varied rates: Agnique BP-420 (50% w/w) at rates from 0.05% to 0.3%; and Agnique BP-420 (50% w/w) plus MSO (methylated seed oil) at rates from 0.25% to 0.75%.

[1] = test system: Gaeumannomyces graminis var. graminis; experiment: Field assessment of Gaeumannomyces graminis var. graminis (GAEUGR) in rice; format: in vivo
Description: The applications were made as preventative treatments, with no infection at the time of application. The first symptoms of […] were observed after three applications.

Pyricularia oryzae = format: in vivo; conditions: 2 sprays, rice field
Rhizoctonia solani = experiment: Field assessment of Rhizoctonia solani (RHIZSO, sheath blight) in rice; format: in vivo; conditions: 2 sprays
Procedure: The experimental plots were inoculated with Rhizoctonia solani_2 days after the first application at growth stage BBCH 59 of rice.
Disease infection percentage was calculated as (lesion lengths)/(total sheath lengths)×100% on 6 plants per plot randomly. Sheath blight infection was assessed three times, 7 days after application A (DAAA) plus 7 and 14 DAAB. The disease infection was recorded following EPPO PP1/26 guideline prescriptions.

[2] = 125 g ai/ha, commercial standard
[3] = 100 g ai/ha, Adjuvant A (Agnique BP-420) 0.2% v/v
[4] = 150 g ai/ha, Adjuvant A (Agnique BP-420) 0.3% v/v

## CCCC1COC(Cn2cncn2)(c2ccc(Cl)cc2Cl)O1 (stereo not drawn) [Propiconazole, reference compound]
Cochliobolus miyabeanus; [2]
  Percent Control (AUDPC), Panicle: B (51-75)
  Percent Control (AUDPC), Plot: B (51-75)

## N#CC(CCc1ccc(Cl)cc1)(Cn1cncn1)c1ccccc1 (stereo not drawn) [Fenbuconazole, reference compound]
[1]; 144 g ai/ha, adjuvant Inex-A 0.15% v/v
  % Control (AUDPC of visual infection on the plant): B (51-75)

## N#Cc1ccc(Oc2ccc(C(F)(F)C(O)(Cn3ncnc3S)c3ccc(F)cc3F)nc2)cc1 (stereo not drawn) [Compound I, 4-((6-(2-(2,4-difluorophenyl)-1,1-difluoro-2-hydroxy-3-(5-mercapto-1H-1,2,4-triazol-1-yl)propyl)pyridin-3-yl)oxy)benzonitrile]
Pyricularia oryzae; 50 g ai/ha
  Disease (% Control) PYRIOR, based on AUDPC: C (26-50)
Pyricularia oryzae; 100 g ai/ha
  Disease (% Control) PYRIOR, based on AUDPC: B (51-75)
Pyricularia oryzae; 150 g ai/ha
  Disease (% Control) PYRIOR, based on AUDPC: A (76-100)
Pyricularia oryzae; 200 g ai/ha
  Disease (% Control) PYRIOR, based on AUDPC: A (76-100)
Cochliobolus miyabeanus; 50 g ai/ha, Adjuvant A (Agnique BP-420) 0.05% v/v
  % Control (AUDPC of visual infection on the plant): B (51-75)
Cochliobolus miyabeanus; 50 g ai/ha, Adjuvant A (Agnique BP-420) 0.1% v/v
  % Control (AUDPC of visual infection on the plant): B (51-75)
Cochliobolus miyabeanus; 50 g ai/ha, Adjuvant A (Agnique BP-420) 0.15% v/v
  % Control (AUDPC of visual infection on the plant): B (51-75)
Cochliobolus miyabeanus; 50 g ai/ha, Adjuvant B (Agnique BP-420 + MSO) 0.25% v/v
  % Control (AUDPC of visual infection on the plant): B (51-75)
Cochliobolus miyabeanus; 50 g ai/ha, Adjuvant B (Agnique BP-420 + MSO) 0.5% v/v
  % Control (AUDPC of visual infection on the plant): B (51-75)
Cochliobolus miyabeanus; 50 g ai/ha, Adjuvant B (Agnique BP-420 + MSO) 0.75% v/v
  % Control (AUDPC of visual infection on the plant): B (51-75)
Cochliobolus miyabeanus; 50 g ai/ha, […]
  Percent Control (AUDPC), Panicle: C (26-50)
  Percent Control (AUDPC), Plot: C (26-50)
Cochliobolus miyabeanus; 50 g ai/ha, adjuvant None
  % Control (AUDPC of visual infection on the plant): C (26-50)
Cochliobolus miyabeanus; 75 g ai/ha, […]
  Percent Control (AUDPC), Panicle: C (26-50)
  Percent Control (AUDPC), Plot: C (26-50)
Cochliobolus miyabeanus; [3]
  % Control (AUDPC of visual infection on the plant): B (51-75)
Cochliobolus miyabeanus; 100 g ai/ha, […]
  Percent Control (AUDPC), Panicle: C (26-50)
  Percent Control (AUDPC), Plot: C (26-50)
Cochliobolus miyabeanus; 125 g ai/ha, […]
  Percent Control (AUDPC), Panicle: B (51-75)
  Percent Control (AUDPC), Plot: C (26-50)
Cochliobolus miyabeanus; [4]
  % Control (AUDPC of visual infection on the plant): A (76-100)
Cochliobolus miyabeanus; 150 g ai/ha, […]
  Percent Control (AUDPC), Panicle: B (51-75)
  Percent Control (AUDPC), Plot: B (51-75)
[1]; 100 g ai/ha, Adjuvant A (Agnique BP-420) 0.1% v/v
  % Control (AUDPC of visual infection on the plant): B (51-75)
[1]; [3]
  % Control (AUDPC of visual infection on the plant): B (51-75)
[1]; 100 g ai/ha, Adjuvant A (Agnique BP-420) 0.3% v/v
  % Control (AUDPC of visual infection on the plant): B (51-75)
[1]; 100 g ai/ha, Adjuvant B (Agnique BP-420 + MSO) 0.5% v/v
  % Control (AUDPC of visual infection on the plant): B (51-75)
[1]; 100 g ai/ha, Adjuvant B (Agnique BP-420 + MSO) 1.0% v/v
  % Control (AUDPC of visual infection on the plant): B (51-75)
[1]; 100 g ai/ha, Adjuvant B (Agnique BP-420 + MSO) 1.5% v/v
  % Control (AUDPC of visual infection on the plant): B (51-75)
[1]; 100 g ai/ha, adjuvant None
  % Control (AUDPC of visual infection on the plant): C (26-50)
[1]; [4]
  % Control (AUDPC of visual infection on the plant): B (51-75)
[1]; 200 g ai/ha, Adjuvant A (Agnique BP-420) 0.4% v/v
  % Control (AUDPC of visual infection on the plant): A (76-100)
Rhizoctonia solani; 50 g ai/ha
  Disease (% Control) RHIZSO, based on AUDPC: D (1-25)
Rhizoctonia solani; 100 g ai/ha
  Disease (% Control) RHIZSO, based on AUDPC: C (26-50)
Rhizoctonia solani; 150 g ai/ha
  Disease (% Control) RHIZSO, based on AUDPC: C (26-50)
Rhizoctonia solani; 200 g ai/ha
  Disease (% Control) RHIZSO, based on AUDPC: B (51-75)
